# According to ChEMBL document CHEMBL3045534, “Synthesis and Acaricidal Activity of N-(1,3,4-Thiadiazol-2-yl)carboxamides” (2003):
# Experiments:
# Assay type in all cases: functional
# Tetranychus urticae [1] = assay: Acaricidal activity against Tetranychus urticae (two-spotted spider mite) assessed as mite mortality at 500 ppm relative to untreated control
# Tetranychus urticae [2] = assay: Acaricidal activity against Tetranychus urticae (two-spotted spider mite) assessed as mite mortality at 50 ppm relative to untreated control
# Tetranychus urticae [3] = assay: Acaricidal activity against Tetranychus urticae (two-spotted spider mite) assessed as mite mortality at 12.5 ppm relative to untreated control
# Tetranychus urticae [4] = assay: Acaricidal activity against Tetranychus urticae (two-spotted spider mite) assessed as mite mortality at 200 ppm relative to untreated control
# Tetranychus urticae [5] = assay: Acaricidal activity against Tetranychus urticae (two-spotted spider mite) assessed as mite mortality at 3.13 ppm relative to untreated control
SMILES,mortality at 500 ppm (Tetranychus urticae [1]) [%],mortality at 50 ppm (Tetranychus urticae [2]) [%],mortality at 12.5 ppm (Tetranychus urticae [3]) [%],mortality at 200 ppm (Tetranychus urticae [4]) [%],mortality at 3.13 ppm (Tetranychus urticae [5]) [%]
CC(C)(C)CC(=O)Nc1nnc(C(F)(F)F)s1,0,,,,
CC(C)CC(Br)C(=O)Nc1nnc(C(F)(F)F)s1 (stereo not given),0,,,,
CCC(C)C(Br)C(=O)Nc1nnc(C(F)(F)F)s1 (stereo not given),100,80,30,100,
CC(C)(C)C(Br)C(=O)Nc1nnc(C(F)(F)F)s1 (stereo not given),100,100,30,100,
CCCCCC(Br)C(=O)Nc1nnc(C(F)(F)F)s1 (stereo not given),80,30,0,80,
O=C(Nc1nnc(C(F)(F)F)s1)C(Br)C1CCCC1 (stereo not given),30,,,0,
CC(CC(Br)C(=O)Nc1nnc(C(F)(F)F)s1)C1CCCCC1 (stereo not given),30,,,0,
CC(C)(C)C(Br)(Br)C(=O)Nc1nnc(C(F)(F)F)s1,100,100,30,100,
CC(C)(C)C(Cl)C(=O)Nc1nnc(C(F)(F)F)s1 (stereo not given),100,100,30,100,
CC(C)(C)C(Br)C(=O)Nc1nnc(C(F)(F)C(F)(F)F)s1 (stereo not given),100,80,30,80,
CC(C)(C)C(Br)C(=O)Nc1nnc(C(F)(F)C(F)(F)C(F)(F)F)s1 (stereo not given),80,30,30,30,
CC(C)(C)C(Br)C(=O)Nc1nnc(C(F)(F)C(F)(F)C(F)(F)C(F)(F)F)s1 (stereo not given),0,,,,
CC(C)(C)C(Br)C(=O)Nc1nnc(C(F)(F)C(F)(F)C(F)(F)C(F)(F)C(F)(F)F)s1 (stereo not given),0,,,,
CC(C)(C)C(Br)C(=O)Nc1nncs1 (stereo not given),0,,,,
Cc1nnc(NC(=O)C(Br)C(C)(C)C)s1 (stereo not given),0,,,,
CCc1nnc(NC(=O)C(Br)C(C)(C)C)s1 (stereo not given),0,,,,
CC(C)(C)C(Br)(Br)C(=O)Nc1nnc(C(F)(F)C(F)(F)F)s1,100,100,80,100,30
CC(C)(C)C(Br)(Br)C(=O)Nc1nnc(C(F)(F)C(F)(F)C(F)(F)F)s1,100,80,0,100,
CC(C)(C)C(Br)(Br)C(=O)Nc1nnc(C(F)(F)C(F)(F)C(F)(F)C(F)(F)F)s1,100,100,30,100,
O=C(CBr)Nc1nnc(C(F)(F)F)s1,0,,,,
CC(Br)C(=O)Nc1nnc(C(F)(F)F)s1 (stereo not given),0,,,,
CCC(Br)C(=O)Nc1nnc(C(F)(F)F)s1 (stereo not given),0,,,,
CCCC(Br)C(=O)Nc1nnc(C(F)(F)F)s1 (stereo not given),30,,,0,
CC(C)C(Br)C(=O)Nc1nnc(C(F)(F)F)s1 (stereo not given),100,,,30,
CCCCC(Br)C(=O)Nc1nnc(C(F)(F)F)s1 (stereo not given),0,,,,
